Experimental data: US20080262445A1, “Transdermal Delivery of Hydrophobic Bioactive Agents” (DERMATRENDS, INC., priority 2004, published 2008)
Read-outs that look alike come from different tables or passages of the source.

How the values were obtained:
[1] = Final pH of the patch; format: physicochemical; conditions: pH of the transdermal patch
[2] = format: in vitro ADME; conditions: human, pH 7.4
Method: An in vitro skin permeation study was conducted using one ondansetron transdermal patch. The formulations used to prepare these systems are listed in Table 1, which includes weight and percent weight of each component of the dried formulations. “PVPP’ refers to a commercially available polyvinyl polypyrrolidone powder, which was added in an amount sufficient to balance the liquid nature of other solubizing agents in order to maintain the physical integrity of the patch. Other suitable and generally inert powders that can be used will become apparent to those skilled in the art, given the present description. “Duratak” is a tradename and refers to a commercially available polyisobutylene adhesive liquid available from National Starch and Chemical.
Each formulation was coated on a release liner and dried in an oven at 65° C. for two hours to remove water and other solvents. […]
The in vitro permeation of ondansetron through human cadaver skin from these discs was performed using Franz diffusion cells with a diffusion area of 1 cm^2 and a receiver solution capacity of 8 ml. […] The receiver solution collected was analyzed by HPLC to determine the concentration of ondansetron. The cumulative amount of ondansetron that permeated across the human cadaver skin was calculated using the measured ondansetron concentrations in the receiver solutions, which were plotted versus time and shown in FIG. 1. […]

For `Cc1nccn1CC1CCc2c(c3ccccc3n2C)C1=O` (stereo not drawn) [ondansetron, 1,2,3,9-tetrahydro-9-methyl-3-[(2-methyl-1H-imidazol-1-yl)methyl]-4H-carbazol-4-one], the “final patch pH” value [1] was 4.7, the “cumulative amount of ondansetron that permeated through the skin” value ([2]; 24 h) was 0.26 mg/cm^2 and the “cumulative amount of ondansetron that permeated through the skin” value ([2]; 51 h) was 0.51 mg/cm^2.
